According to ChEMBL document CHEMBL3885881, “DrugMatrix”:

Species: Rattus norvegicus
Assay: DrugMatrix - Regimen: Daily Repeat
Format: toxicity, organism-based, Sprague-Dawley
Design: regimen Daily Repeat, gender Male, age 6-8 weeks
Details: in vivo, po, 0 mg/kg, route oral GAVAGE, dose level Control, vehicle .5 % CMC; for ABSOLUTE BASOPHIL / ABSOLUTE EOSINOPHIL / ABSOLUTE LYMPHOCYTE / ABSOLUTE MONOCYTE / ABSOLUTE SEGMENTED NEUTROPHIL / BASOPHIL / EOSINOPHIL / ERYTHROCYTE COUNT / HEMATOCRIT / HEMOGLOBIN / LEUKOCYTE COUNT / LYMPHOCYTE / MEAN CORPUSCULAR HEMOGLOBIN / MEAN CORPUSCULAR HEMOGLOBIN CONCENTRATION / MEAN CORPUSCULAR VOLUME / MONOCYTE / NEUTROPHIL / NUCLEATED RED BLOOD CELLS / PLATELET COUNT: tissue Blood; for ALANINE AMINOTRANSFERASE / ALBUMIN / ALKALINE PHOSPHATASE / ASPARTATE AMINOTRANSFERASE / BLOOD UREA NITROGEN / CARBON DIOXIDE / CHLORIDE / CHOLESTEROL / CREATINE PHOSPHOKINASE / CREATININE / GLUCOSE / LACTATE DEHYDROGENASE / LIPASE / PHOSPHORUS / POTASSIUM / SODIUM / TOTAL BILIRUBIN / TOTAL PROTEIN / URIC ACID: tissue Plasma

C[C@H]1O[C@@H](n2cc(F)c(=O)[nH]c2=O)[C@H](O)[C@@H]1O [DOXIFLURIDINE]
ABSOLUTE BASOPHIL (72 h, time 3 day): 0 CELLS/uL
ABSOLUTE EOSINOPHIL (72 h, time 3 day): 0 CELLS/uL
ABSOLUTE LYMPHOCYTE (72 h, time 3 day): 12191.17 CELLS/uL
ABSOLUTE MONOCYTE (72 h, time 3 day): 183.17 CELLS/uL
ABSOLUTE SEGMENTED NEUTROPHIL (72 h, time 3 day): 1192.33 CELLS/uL
BASOPHIL (72 h, time 3 day): 0%
EOSINOPHIL (72 h, time 3 day): 0%
ERYTHROCYTE COUNT (72 h, time 3 day): 5.51 x10E6/uL
HEMATOCRIT (72 h, time 3 day): 35.45%
HEMOGLOBIN (72 h, time 3 day): 13.82 G/DL
LEUKOCYTE COUNT (72 h, time 3 day): 13.57 x10E3/uL
LYMPHOCYTE (72 h, time 3 day): 89.83%
MEAN CORPUSCULAR HEMOGLOBIN (72 h, time 3 day): 25.1 pg
MEAN CORPUSCULAR HEMOGLOBIN CONCENTRATION (72 h, time 3 day): 38.98 G/DL
MEAN CORPUSCULAR VOLUME (72 h, time 3 day): 64.42 fL
MONOCYTE (72 h, time 3 day): 1.33%
NEUTROPHIL (72 h, time 3 day): 8.83%
NUCLEATED RED BLOOD CELLS (72 h, time 3 day): 0 /100WBC
PLATELET COUNT (72 h, time 3 day): 1118.17 x10E3/uL
ALANINE AMINOTRANSFERASE (72 h, time 3 day): 55 u/L
ALBUMIN (72 h, time 3 day): 4.15 G/DL
ALKALINE PHOSPHATASE (72 h, time 3 day): 449.5 u/L
ASPARTATE AMINOTRANSFERASE (72 h, time 3 day): 112.83 u/L
BLOOD UREA NITROGEN (72 h, time 3 day): 17.33 mg/dL
CARBON DIOXIDE (72 h, time 3 day): 29.5 mmol/L
CHLORIDE (72 h, time 3 day): 101 MEQ/L
CHOLESTEROL (72 h, time 3 day): 70 mg/dL
CREATINE PHOSPHOKINASE (72 h, time 3 day): 1325.83 u/L
CREATININE (72 h, time 3 day): 0.18 mg/dL
GLUCOSE (72 h, time 3 day): 171.5 mg/dL
LACTATE DEHYDROGENASE (72 h, time 3 day): 386 u/L
LIPASE (72 h, time 3 day): 10 u/L
PHOSPHORUS (72 h, time 3 day): 11.57 mg/dL
POTASSIUM (72 h, time 3 day): 6.21 MEQ/L
SODIUM (72 h, time 3 day): 141.65 MEQ/L
TOTAL BILIRUBIN (72 h, time 3 day): 0.15 mg/dL
TOTAL PROTEIN (72 h, time 3 day): 5.75 G/DL
URIC ACID (72 h, time 3 day): 1.28 mg/dL
ABSOLUTE BASOPHIL (120 h, time 5 day): 0 CELLS/uL
ABSOLUTE EOSINOPHIL (120 h, time 5 day): 138.17 CELLS/uL
ABSOLUTE LYMPHOCYTE (120 h, time 5 day): 13283.17 CELLS/uL
ABSOLUTE MONOCYTE (120 h, time 5 day): 303.83 CELLS/uL
ABSOLUTE SEGMENTED NEUTROPHIL (120 h, time 5 day): 1308.17 CELLS/uL
BASOPHIL (120 h, time 5 day): 0%
EOSINOPHIL (120 h, time 5 day): 1%
ERYTHROCYTE COUNT (120 h, time 5 day): 5.32 x10E6/uL
HEMATOCRIT (120 h, time 5 day): 33.8%
HEMOGLOBIN (120 h, time 5 day): 13.63 G/DL
LEUKOCYTE COUNT (120 h, time 5 day): 15.03 x10E3/uL
LYMPHOCYTE (120 h, time 5 day): 88.33%
MEAN CORPUSCULAR HEMOGLOBIN (120 h, time 5 day): 25.68 pg
MEAN CORPUSCULAR HEMOGLOBIN CONCENTRATION (120 h, time 5 day): 40.35 G/DL
MEAN CORPUSCULAR VOLUME (120 h, time 5 day): 63.67 fL
MONOCYTE (120 h, time 5 day): 1.83%
NEUTROPHIL (120 h, time 5 day): 8.83%
NUCLEATED RED BLOOD CELLS (120 h, time 5 day): 0 /100WBC
PLATELET COUNT (120 h, time 5 day): 1097.5 x10E3/uL
ALANINE AMINOTRANSFERASE (120 h, time 5 day): 54.5 u/L
ALBUMIN (120 h, time 5 day): 4.27 G/DL
ALKALINE PHOSPHATASE (120 h, time 5 day): 337 u/L
ASPARTATE AMINOTRANSFERASE (120 h, time 5 day): 94.67 u/L
BLOOD UREA NITROGEN (120 h, time 5 day): 17 mg/dL
CARBON DIOXIDE (120 h, time 5 day): 28.33 mmol/L
CHLORIDE (120 h, time 5 day): 101.5 MEQ/L
CHOLESTEROL (120 h, time 5 day): 71.33 mg/dL
CREATINE PHOSPHOKINASE (120 h, time 5 day): 628.17 u/L
CREATININE (120 h, time 5 day): 0.19 mg/dL
GLUCOSE (120 h, time 5 day): 177.83 mg/dL
LACTATE DEHYDROGENASE (120 h, time 5 day): 500.5 u/L
LIPASE (120 h, time 5 day): 9.5 u/L
PHOSPHORUS (120 h, time 5 day): 12.3 mg/dL
POTASSIUM (120 h, time 5 day): 5.63 MEQ/L
SODIUM (120 h, time 5 day): 143.03 MEQ/L
TOTAL BILIRUBIN (120 h, time 5 day): 0.2 mg/dL
TOTAL PROTEIN (120 h, time 5 day): 6.02 G/DL
URIC ACID (120 h, time 5 day): 1.5 mg/dL
